Test results published in article PMC6289772 (Cancer, 2018).

What was measured:
[1] = format: in vivo, human (children and adolescents)
[2] = Toxicity / dose-limiting toxicity evaluation, phase 1 trial; format: in vivo
[3] = Axitinib plasma pharmacokinetics, phase 1 trial; format: in vivo
[4] = cited from earlier work
[5] = test system: recurrent or refractory solid tumors; test: Tumor response assessment; format: in vivo, human (children and adolescents)
[6] = median (range), Dose Level 2.4 mg/m^2, Day 1 (n=12)
[7] = median (range), Dose Level 3.2 mg/m^2, Day 1 (n=6)

Structure (SMILES): CNC(=O)c1ccccc1Sc1ccc2c(/C=C/c3ccccn3)n[nH]c2c1 [Axitinib]
- trends in AKI biomarkers (KIM-1, NGAL, IL-18) during axitinib therapy ([1]; cycle 1 or between dose levels): no trends were identified
- increase in urine UPC ratio per cycle ([1]; during axitinib therapy, not significant (P=0.30)): 4%
- Abdominal pain, Grade 2 ([2]; human, in vivo): 1
- Alanine aminotransferase increased, Grade 2 ([2]; human, in vivo): 1
- Anemia, Grade 1 ([2]; human, in vivo): 1
- Anorexia, Grade 1 ([2]; human, in vivo): 1
- Fatigue, Grade 1 ([2]; human, in vivo): 3
- Fatigue, Grade 2 ([2]; human, in vivo): 1
- Headache, Grade 2 ([2]; human, in vivo): 1
- Hemoglobin increased, Grade 1 ([2]; human, in vivo): 1
- Hemoglobin increased, Grade 2 ([2]; human, in vivo): 2
- Hemoglobin increased, Grade 3 ([2]; human, in vivo): 1
- Hypertension, Grade 2 ([2]; human, in vivo): 3
- Hypertension, Grade 3 ([2]; human, in vivo): 1
- Hypophosphatemia, Grade 1 ([2]; human, in vivo): 1
- Hypothyroidism, Grade 2 ([2]; human, in vivo): 2
- Leukopenia, Grade 1 ([2]; human, in vivo): 1
- Lipase increased, Grade 2 ([2]; human, in vivo): 2
- Lipase increased, Grade 3 ([2]; human, in vivo): 1
- Lymphopenia, Grade 1 ([2]; human, in vivo): 1
- Nausea, Grade 1 ([2]; human, in vivo): 1
- Nausea, Grade 2 ([2]; human, in vivo): 2
- Neutropenia, Grade 2 ([2]; human, in vivo): 2
- Palmar-plantar erythrodysesthesia syndrome, Grade 1 ([2]; human, in vivo): 1
- Palmar-plantar erythrodysesthesia syndrome, Grade 2 ([2]; human, in vivo): 1
- Proteinuria, Grade 1 ([2]; human, in vivo): 2
- Proteinuria, Grade 2 ([2]; human, in vivo): 1
- Vomiting, Grade 1 ([2]; human, in vivo): 1
- Anemia, Grade 1 ([2]; human, in vivo, 1 cycle): 3
- Anemia, Grade 2 ([2]; human, in vivo, 1 cycle): 2
- Hemoglobin increased, Grade 1 ([2]; human, in vivo, 1 cycle): 3
- Hypertension, Grade 2 ([2]; human, in vivo, 1 cycle): 4
- Hypophosphatemia, Grade 1 ([2]; human, in vivo, 1 cycle): 2
- Hypothyroidism, Grade 1 ([2]; human, in vivo, 1 cycle): 1
- Hypothyroidism, Grade 2 ([2]; human, in vivo, 1 cycle): 2
- Leukopenia, Grade 1 ([2]; human, in vivo, 1 cycle): 1
- Lipase increased, Grade 1 ([2]; human, in vivo, 1 cycle): 1
- Lipase increased, Grade 2 ([2]; human, in vivo, 1 cycle): 1
- Lymphopenia, Grade 1 ([2]; human, in vivo, 1 cycle): 1
- Lymphopenia, Grade 2 ([2]; human, in vivo, 1 cycle): 1
- Neutropenia, Grade 2 ([2]; human, in vivo, 1 cycle): 1
- Palmar-plantar erythrodysesthesia syndrome, Grade 2 ([2]; human, in vivo, 1 cycle): 2
- Proteinuria, Grade 1 ([2]; human, in vivo, 1 cycle): 2
- Rash acneiform, Grade 1 ([2]; human, in vivo, 1 cycle): 2
- Sore throat, Grade 1 ([2]; human, in vivo, 1 cycle): 2
- Thrombocytopenia, Grade 1 ([2]; human, in vivo, 1 cycle): 1
- Vomiting, Grade 1 ([2]; human, in vivo, 1 cycle): 3
- recommended phase 2 dose (RP2D) ([2]; human, in vivo, po, 28 days): 2.4 mg/m^2/dose
- DLTs at dose level 1 ([2]; in vivo): No DLTs
- growth plate abnormalities (tibia radiograph) ([2]; in vivo): No growth plate abnormalities were observed
- number of grade 3 toxicities (non-dose limiting) ([2]; in vivo): three
- maximum tolerated and recommended dose ([2]; orally twice daily, continuous 28-day cycles, children with refractory solid tumors): 2.4 mg/m^2/dose
- median oral clearance CL/F ([3]; Day 1, children <12 years): 28.6 L/h/m^2
- median oral clearance CL/F ([3]; Day 1, children ≥12 years): 19.7 L/h/m^2
- median oral clearance CL/F ([3]; Day 1, females): 19.7 L/h/m^2
- median oral clearance CL/F ([3]; Day 1, males): 24.2 L/h/m^2
- half-life ([3]; human, plasma, oral): 2.4 h
- AUC(0-t) ([3]; human, plasma, oral, 2.4 mg/m2, AUC0–8h, median (range), Dose Level 2.4 mg/m^2, Day 1 (n=12)): 91 ng·h/mL
- AUC(0-t) ([3]; human, plasma, oral, 2.4 mg/m2, AUC0–8h, median (range), Dose Level 2.4 mg/m^2, Day 8 (n=12)): 147 ng·h/mL
- Cmax ([3]; human, plasma, oral, 2.4 mg/m2, Cmax, median (range), Dose Level 2.4 mg/m^2, Day 1 (n=12)): 23.8 ng/mL
- Cmax ([3]; human, plasma, oral, 2.4 mg/m2, Cmax, median (range), Dose Level 2.4 mg/m^2, Day 8 (n=12)): 47.4 ng/mL
- half-life ([3]; human, plasma, oral, 2.4 mg/m2, Half life, median (range), Dose Level 2.4 mg/m^2, Day 1 (n=12)): 2.2 h
- half-life ([3]; human, plasma, oral, 2.4 mg/m2, Half life, median (range), Dose Level 2.4 mg/m^2, Day 8 (n=12)): 2.5 h
- Tmax ([3]; human, plasma, oral, 2.4 mg/m2, Tmax, median (range), Dose Level 2.4 mg/m^2, Day 1 (n=12)): 2 h
- Tmax ([3]; human, plasma, oral, 2.4 mg/m2, Tmax, median (range), Dose Level 2.4 mg/m^2, Day 8 (n=12)): 1.5 h
- AUC(0-t) ([3]; human, plasma, oral, 3.2 mg/m2, AUC0–8h, median (range), Dose Level 3.2 mg/m^2, Day 1 (n=6)): 134 ng·h/mL
- AUC(0-t) ([3]; human, plasma, oral, 3.2 mg/m2, AUC0–8h, median (range), Dose Level 3.2 mg/m^2, Day 8 (n=5)): 140 ng·h/mL
- Cmax ([3]; human, plasma, oral, 3.2 mg/m2, Cmax, median (range), Dose Level 3.2 mg/m^2, Day 1 (n=6)): 38 ng/mL
- half-life ([3]; human, plasma, oral, 3.2 mg/m2, Half life, median (range), Dose Level 3.2 mg/m^2, Day 1 (n=6)): 2.6 h
- half-life ([3]; human, plasma, oral, 3.2 mg/m2, Half life, median (range), Dose Level 3.2 mg/m^2, Day 8 (n=5)): 1.8 h
- Tmax ([3]; human, plasma, oral, 3.2 mg/m2, Tmax, median (range), Dose Level 3.2 mg/m^2, Day 1 (n=6)): 2 h
- Tmax ([3]; human, plasma, oral, 3.2 mg/m2, Tmax, median (range), Dose Level 3.2 mg/m^2, Day 8 (n=5)): 2 h
- half-life ([3]; human, plasma, oral, half-life (range), all patients): 0.7 to 5.2 h
- half-life ([3]; human, plasma, oral, median half-life, Day 8, all patients): 2.5 h
- accumulation ratio (day 8 AUC0–8h versus day 1 AUC0–8h) ([3]; median (range), all patients): 1.8 (0.3 – 4.7)
- Cl/F [3, 6]: 28.0 (9.8–230.1) L/h
- Cl/m^2 [3, 6]: 21.4 (6.0–230.1) L/h/m^2
- V/F [3, 6]: 74.9 (43.6–888.7) L
- V/m^2 [3, 6]: 67.4 (39.1–888.7) L/m^2
- Cl/F [3, 7]: 32.6 (14.2–65.2) L/h
- Cl/m^2 [3, 7]: 19.9 (11.4–61.5) L/h/m^2
- V/F [3, 7]: 99.4 (48.9–150.6) L
- V/m^2 [3, 7]: 65.5 (39.1–101.6) L/m^2
- Cmax ([3]; median (range), Dose Level 3.2 mg/m^2, Day 8 (n=5)): 41.5 (15.5–76.5) ng/mL
- maximum tolerated dose (MTD) in adults ([4]; PO BID): 5 mg
- median time to onset of grade 1–2 hypertension ([4]; adults): 16 days
- median time to onset of grade ≥ 3 hypertension ([4]; adults): 24 days
- patients with discontinuation due to axitinib related hypertension ([4]; adults): < 1%
- patients with dose interruptions due to axitinib related hypertension ([4]; adults): 12%
- patients with dose modification due to axitinib related hypertension ([4]; adults): 5%
- patients with partial response ([5]; alveolar soft part sarcoma, 15 patients with reportable response): One patient
- duration of partial response ([5]; patient with alveolar soft part sarcoma, prior to clinical progression): 6 months
